Laboratory results as given in patent US10681909B2, “Herbicidal triazoles” (FMC Corporation, priority 2014, dated 2020).

Experiments:
ragweed = assay: Test E preemergence; format: in vivo, Ambrosia elatior; conditions: scale 0 to 100
Text: (§1) Seeds of plant species selected from corn (Zea mays), soybean (Glycine max), lambsquarters (Chenopodium album), poinsettia, wild (wild poinsettia, Euphorbia heterophylla), pigweed, palmer (palmer pigweed, Amaranthus palmeri), waterhemp (common waterhemp, Amaranthus rudis), surinam grass (Brachiaria decumbens), crabgrass, large (large crabgrass, Digitaria sanguinalis), crabgrass, Brazilian (Brazilian crabgrass, Digitaria horizontalis), panicum, fall (fall panicum, Panicum dichotomiflorum), foxtail, giant (giant foxtail, Setaria faberii), foxtail, green (green foxtail, Setaria viridis), goosegrass (Eleusine indica), johnsongrass (Sorghum halepense), ragweed (common ragweed, Ambrosia elatior), barnyardgrass (Echinochloa crus-galli), sandbur (southern sandbur, Cenchrus echinatus), arrowleaf sida (Sida rhombifolia), ryegrass, Italian (Italian ryegrass, Lolium multiflorum), dayflower, VA (Virginia dayflower, Commelina virginica), field bindweed (Convolvulus arvensis), cocklebur (common cocklebur, Xanthium strumarium), morningglory (Ipomoea coccinea), nightshade (eastern black nightshade, Solanum ptycanthum), kochia (Kochia scoparia), nutsedge, yellow (yellow nutsedge, Cyperus esculentus), smartweed (ladysthumb smartweed, Polygonum persicaria), velvetleaf (Abutilon theophrasti), horseweed (Conyza canadensis), and beggarticks (hairy beggarticks, Bidens pilosa), were planted into a silt loam soil and treated preemergence with test chemicals formulated in a non-phytotoxic solvent mixture which included a surfactant.
(§2) At the same time, plants from these crop and weed species and also waterhemp_RES1, (ALS & Triazine resistant common waterhemp, Amaranthus rudis), and waterhemp_RES2, (ALS & HPPD resistant common waterhemp, Amaranthus rudis) were planted in pots containing Sunshine Redi-Earth® planting medium comprising spaghnum peat moss, vermiculite, starter nutrients and dolomitic limestone were treated with postemergence applications of test chemicals formulated in the same manner. Plants ranged in height from 2 to 18 cm for postemergence treatments (1- to 4-leaf stage). Treated plants and controls were maintained in a greenhouse for 14 to 21 d, after which time all species were compared to controls and visually evaluated. Plant response ratings, summarized in Table E, are based on a scale of 0 to 100 where 0 is no effect and 100 is complete control. A dash (-) response means no test result.

beggarticks [1] = assay: Test E postemergence; format: in vivo, Bidens pilosa; conditions: scale 0 to 100
Text: as §1, §2

wheat (winter wheat) = assay: Test C preemergence; format: in vivo, Triticum aestivum; conditions: for Wheat plant response rating (0 to 100): Preemergence, visual rating after 13 to 15 d; for Plant response rating (scale of 0 to 100 where 0 is no effect and 100 is complete control): Wheat, preemergence, 250 g ai/ha
Text: Seeds of plant species selected from blackgrass (Alopecurus myosuroides), ryegrass, Italian (Italian ryegrass, Lolium multiflorum), wheat (winter wheat, Triticum aestivum), galium (catchweed bedstraw, Galium aparine), corn (Zea mays), crabgrass, large (large crabgrass, Digitaria sanguinalis), foxtail, giant, (giant foxtail, Setaria faberii), johnsongrass (Sorghum halepense), lambsquarters (Chenopodium album), morningglory (Ipomoea coccinea), nutsedge, yellow (yellow nutsedge, Cyperus esculentus), pigweed (Amaranthus retroflexus), ragweed (common ragweed, Ambrosia elatior), soybean (Glycine max), barnyardgrass (Echinochloa crus-galli), oilseed rape (Brassica napus), waterhemp (common waterhemp, Amaranthus rudis), and velvetleaf (Abutilon theophrasti) were planted into a blend of loam soil and sand and treated preemergence with test chemicals formulated in a non-phytotoxic solvent mixture which included a surfactant. At the same time, plants selected from these crop and weed species and also chickweed (common chickweed, Stellaria media), oat, wild (wild oat, Avena fatua), and kochia (Kochia scoparia), were planted in pots containing Sunshine Redi-Earth® planting medium comprising spaghnum peat moss, vermiculite, starter nutrients and dolomitic limestone and treated with postemergence applications of test chemicals formulated in the same manner. Plants ranged in height from 2 to 18 cm (1- to 4-leaf stage) for postemergence treatments. […] A dash (-) response means no test result.

surinam grass = assay: Test E preemergence; format: in vivo, Brachiaria decumbens; conditions: scale 0 to 100
Text: as §1, §2

ryegrass, Italian [2] = assay: Test E postemergence; format: in vivo, Lolium multiflorum; conditions: scale 0 to 100
Text: as §1, §2

[3] = tested on: waterhemp_RES1 (ALS & Triazine resistant common waterhemp); assay: Test E postemergence; format: in vivo, Amaranthus rudis; conditions: scale 0 to 100
Text: as §1, §2

[4] = tested on: waterhemp_RES2 (ALS & HPPD resistant common waterhemp); assay: Test E postemergence; format: in vivo, Amaranthus rudis; conditions: scale 0 to 100
Text: as §1, §2

waterhemp [5] = assay: Test E postemergence; format: in vivo, Amaranthus rudis; conditions: scale 0 to 100
Text: as §1, §2

waterhemp [6] = assay: Test E preemergence; format: in vivo, Amaranthus rudis; conditions: scale 0 to 100
Text: as §1, §2

barnyardgrass = assay: Test E preemergence; format: in vivo, Echinochloa crus-galli; conditions: scale 0 to 100
Text: as §1, §2

velvetleaf = assay: Test E preemergence; format: in vivo, Abutilon theophrasti; conditions: scale 0 to 100
Text: as §1, §2

foxtail, giant = assay: Test E preemergence; format: in vivo, Setaria faberii; conditions: scale 0 to 100
Text: as §1, §2

ryegrass, Italian [7] = assay: Test E preemergence; format: in vivo, Lolium multiflorum; conditions: scale 0 to 100
Text: as §1, §2

field bindweed = assay: Test E preemergence; format: in vivo, Convolvulus arvensis; conditions: scale 0 to 100
Text: as §1, §2

beggarticks [8] = assay: Test E preemergence; format: in vivo, Bidens pilosa; conditions: scale 0 to 100
Text: as §1, §2

## CCOc1nc(-c2ccccc2)nn1Cc1ccnc(C(F)(F)F)c1 [Compound 27]
ragweed; 16 g ai/ha
  Plant response rating: 50
ragweed; 31 g ai/ha
  Plant response rating: 35
ragweed; 62 g ai/ha
  Plant response rating: 90
ragweed; 125 g ai/ha
  Plant response rating: 80
Beggarticks [1]; 16 g ai/ha
  Plant response rating: 40
Beggarticks [1]; 31 g ai/ha
  Plant response rating: 50
Beggarticks [1]; 62 g ai/ha
  Plant response rating: 50
Beggarticks [1]; 125 g ai/ha
  Plant response rating: 55
Wheat (winter wheat); 31 g ai/ha
  Wheat plant response rating (0 to 100): 20
Wheat (winter wheat); 62 g ai/ha
  Wheat plant response rating (0 to 100): 25
Wheat (winter wheat)
  Plant response rating (scale of 0 to 100 where 0 is no effect and 100 is complete control): 60
Surinam grass; 16 g ai/ha
  Plant response rating: 0
Surinam grass; 31 g ai/ha
  Plant response rating: 0
Surinam grass; 62 g ai/ha
  Plant response rating: 10
Surinam grass; 125 g ai/ha
  Plant response rating: 15
ryegrass, Italian [2]; 16 g ai/ha
  Plant response rating: 20
ryegrass, Italian [2]; 31 g ai/ha
  Plant response rating: 30
ryegrass, Italian [2]; 62 g ai/ha
  Plant response rating: 30
ryegrass, Italian [2]; 125 g ai/ha
  Plant response rating: 40
[3]; 16 g ai/ha
  Plant response rating: 95
[3]; 31 g ai/ha
  Plant response rating: 95
[3]; 62 g ai/ha
  Plant response rating: 95
[3]; 125 g ai/ha
  Plant response rating: 98
[4]; 16 g ai/ha
  Plant response rating: 90
[4]; 31 g ai/ha
  Plant response rating: 95
[4]; 62 g ai/ha
  Plant response rating: 90
[4]; 125 g ai/ha
  Plant response rating: 90
Waterhemp [5]; 16 g ai/ha
  Plant response rating: 95
Waterhemp [5]; 31 g ai/ha
  Plant response rating: 98
Waterhemp [5]; 62 g ai/ha
  Plant response rating: 95
Waterhemp [5]; 125 g ai/ha
  Plant response rating: 95
Waterhemp [6]; 16 g ai/ha
  Plant response rating: 100
Waterhemp [6]; 31 g ai/ha
  Plant response rating: 100
Waterhemp [6]; 62 g ai/ha
  Plant response rating: 100
Waterhemp [6]; 125 g ai/ha
  Plant response rating: 100
barnyardgrass; 16 g ai/ha
  Plant response rating: 10
barnyardgrass; 31 g ai/ha
  Plant response rating: 25
barnyardgrass; 62 g ai/ha
  Plant response rating: 90
barnyardgrass; 125 g ai/ha
  Plant response rating: 95
velvetleaf; 16 g ai/ha
  Plant response rating: 35
velvetleaf; 31 g ai/ha
  Plant response rating: 50
velvetleaf; 62 g ai/ha
  Plant response rating: 50
velvetleaf; 125 g ai/ha
  Plant response rating: 95
foxtail, giant; 16 g ai/ha
  Plant response rating: 75
foxtail, giant; 31 g ai/ha
  Plant response rating: 95
foxtail, giant; 62 g ai/ha
  Plant response rating: 100
foxtail, giant; 125 g ai/ha
  Plant response rating: 100
ryegrass, Italian [7]; 16 g ai/ha
  Plant response rating: 0
ryegrass, Italian [7]; 31 g ai/ha
  Plant response rating: 20
ryegrass, Italian [7]; 62 g ai/ha
  Plant response rating: 60
ryegrass, Italian [7]; 125 g ai/ha
  Plant response rating: 95
Field bindweed; 16 g ai/ha
  Plant response rating: 0
Field bindweed; 31 g ai/ha
  Plant response rating: 0
Field bindweed; 62 g ai/ha
  Plant response rating: 60
Field bindweed; 125 g ai/ha
  Plant response rating: 90
Beggarticks [8]; 16 g ai/ha
  Plant response rating: 0
Beggarticks [8]; 31 g ai/ha
  Plant response rating: 0
Beggarticks [8]; 62 g ai/ha
  Plant response rating: 0
Beggarticks [8]; 125 g ai/ha
  Plant response rating: 0

## CCc1nc(-c2ccc(C(F)(F)F)cc2)nn1Cc1ccnc(C(F)(F)F)c1 [Compound 1, 4-[[5-ethyl-3-[4-(trifluoromethyl)phenyl]-1H-1,2,4-triazol-1-yl]methyl]-2-(trifluoromethyl)pyridine]
ragweed; 16 g ai/ha
  Plant response rating: 0
ragweed; 31 g ai/ha
  Plant response rating: 10
ragweed; 62 g ai/ha
  Plant response rating: 35
ragweed; 125 g ai/ha
  Plant response rating: 65
ragweed; 250 g ai/ha
  Plant response rating: 75
Beggarticks [1]; 16 g ai/ha
  Plant response rating: 20
Beggarticks [1]; 31 g ai/ha
  Plant response rating: 40
Beggarticks [1]; 62 g ai/ha
  Plant response rating: 40
Beggarticks [1]; 125 g ai/ha
  Plant response rating: 50
Beggarticks [1]; 250 g ai/ha
  Plant response rating: 60
Wheat (winter wheat); 31 g ai/ha
  Wheat plant response rating (0 to 100): 0
Wheat (winter wheat); 62 g ai/ha
  Wheat plant response rating (0 to 100): 0
Wheat (winter wheat)
  Plant response rating (scale of 0 to 100 where 0 is no effect and 100 is complete control): 5
Surinam grass; 16 g ai/ha
  Plant response rating: 0
Surinam grass; 31 g ai/ha
  Plant response rating: 0
Surinam grass; 62 g ai/ha
  Plant response rating: 10
Surinam grass; 125 g ai/ha
  Plant response rating: 20
Surinam grass; 250 g ai/ha
  Plant response rating: 20
ryegrass, Italian [2]; 16 g ai/ha
  Plant response rating: 0
ryegrass, Italian [2]; 31 g ai/ha
  Plant response rating: 10
ryegrass, Italian [2]; 62 g ai/ha
  Plant response rating: 10
ryegrass, Italian [2]; 125 g ai/ha
  Plant response rating: 15
ryegrass, Italian [2]; 250 g ai/ha
  Plant response rating: 25
[3]; 16 g ai/ha
  Plant response rating: 90
[3]; 31 g ai/ha
  Plant response rating: 90
[3]; 62 g ai/ha
  Plant response rating: 90
[3]; 125 g ai/ha
  Plant response rating: 95
[3]; 250 g ai/ha
  Plant response rating: 95
[4]; 16 g ai/ha
  Plant response rating: 80
[4]; 31 g ai/ha
  Plant response rating: 85
[4]; 62 g ai/ha
  Plant response rating: 85
[4]; 125 g ai/ha
  Plant response rating: 90
[4]; 250 g ai/ha
  Plant response rating: 95
Waterhemp [5]; 16 g ai/ha
  Plant response rating: 65
Waterhemp [5]; 31 g ai/ha
  Plant response rating: 80
Waterhemp [5]; 62 g ai/ha
  Plant response rating: 90
Waterhemp [5]; 125 g ai/ha
  Plant response rating: 95
Waterhemp [5]; 250 g ai/ha
  Plant response rating: 95
Waterhemp [6]; 16 g ai/ha
  Plant response rating: 20
Waterhemp [6]; 31 g ai/ha
  Plant response rating: 95
Waterhemp [6]; 62 g ai/ha
  Plant response rating: 95
Waterhemp [6]; 125 g ai/ha
  Plant response rating: 100
Waterhemp [6]; 250 g ai/ha
  Plant response rating: 100
barnyardgrass; 16 g ai/ha
  Plant response rating: 0
barnyardgrass; 31 g ai/ha
  Plant response rating: 10
barnyardgrass; 62 g ai/ha
  Plant response rating: 30
barnyardgrass; 125 g ai/ha
  Plant response rating: 30
barnyardgrass; 250 g ai/ha
  Plant response rating: 50
velvetleaf; 16 g ai/ha
  Plant response rating: 0
velvetleaf; 31 g ai/ha
  Plant response rating: 10
velvetleaf; 62 g ai/ha
  Plant response rating: 10
velvetleaf; 125 g ai/ha
  Plant response rating: 30
velvetleaf; 250 g ai/ha
  Plant response rating: 50
foxtail, giant; 16 g ai/ha
  Plant response rating: 20
foxtail, giant; 31 g ai/ha
  Plant response rating: 30
foxtail, giant; 62 g ai/ha
  Plant response rating: 80
foxtail, giant; 125 g ai/ha
  Plant response rating: 80
foxtail, giant; 250 g ai/ha
  Plant response rating: 98
ryegrass, Italian [7]; 16 g ai/ha
  Plant response rating: 0
ryegrass, Italian [7]; 31 g ai/ha
  Plant response rating: 0
ryegrass, Italian [7]; 62 g ai/ha
  Plant response rating: 20
ryegrass, Italian [7]; 125 g ai/ha
  Plant response rating: 20
ryegrass, Italian [7]; 250 g ai/ha
  Plant response rating: 40
Field bindweed; 16 g ai/ha
  Plant response rating: 0
Field bindweed; 31 g ai/ha
  Plant response rating: 10
Field bindweed; 62 g ai/ha
  Plant response rating: 30
Field bindweed; 125 g ai/ha
  Plant response rating: 40
Field bindweed; 250 g ai/ha
  Plant response rating: 50
Beggarticks [8]; 16 g ai/ha
  Plant response rating: 0
Beggarticks [8]; 31 g ai/ha
  Plant response rating: 0
Beggarticks [8]; 62 g ai/ha
  Plant response rating: 0
Beggarticks [8]; 125 g ai/ha
  Plant response rating: 20
Beggarticks [8]; 250 g ai/ha
  Plant response rating: 60
